Source: publication PMC7782983, “Anion inhibition studies of the Zn(II)-bound ι-carbonic anhydrase from the Gram-negative bacterium Burkholderia territorii” (Journal of Enzyme Inhibition and Medicinal Chemistry, 2021)
Where two headings read alike, the source gives them in different places.

Target: BteCAι
Assay: stopped-flow CO2 hydrase assay
Assay type: biochemical, Burkholderia territorii
Conditions: read-out: KI (mM)^a / BteCAι^d
[1] = CO2 hydration, HEPES pH 7.5, 20 mM NaClO4, 15 min preincubation, room temperature, Zn(II) enzyme

Row | SMILES | Ki [1] | Ki
1 | N#CO [CNO^−] | 0.79 mM | 
2 | O=C(O)O [CO3^2−] | 4.4 mM | 
3 | Cl [Cl^−] | 3.1 mM | 
4 | CCN(CC)C(=S)S [EtNCS2^−] | 0.81 mM | 
5 | O=C(O)O [HCO3^−] | 0.94 mM | 
6 | NS(N)(=O)=O [NH2SO2NH2] | 0.086 mM | 
7 | NS(=O)(=O)O [NH2SO3H] | 0.0062 mM | 
8 | O=[As](O)(O)c1ccccc1 [PhAsO3H2] |  | 0.008 mM
9 | OB(O)c1ccccc1 [PhB(OH)2] | 0.009 mM | 
10 | O=S(=O)(O)OOS(=O)(=O)O [S2O8^2−] | 7.4 mM | 
11 | N#CS [SCN^−] | 6.1 mM | 
12 | O=S(=O)(O)O [SO4^2−] | 5.8 mM | 
13 | N#C[SeH] [SeCN^−] | 6.6 mM | 
14 | [O]=[Sn]([OH])[OH] [SnO3^2−] | 0.094 mM | 
